Key:
Carbonic anhydrase 2 [1] = target: T1, Carbonic anhydrase 2 (Homo sapiens, UniProt P00918); assay: Inhibition of esterase activity of human carbonic anhydrase 2 by spectrophotometry; conditions: read-out: I50
Carbonic anhydrase 1 [2] = target: T2, Carbonic anhydrase 1 (Homo sapiens, UniProt P00915); assay: Inhibition of esterase activity of human carbonic anhydrase 1 by spectrophotometry; conditions: read-out: I50
Carbonic anhydrase 2 [3] = target: T1, Carbonic anhydrase 2
Description: Inhibition of esterase activity of human carbonic anhydrase 2 by Lineweaver-Burke plot analysis

Carbonic anhydrase 1 [4] = target: T2, Carbonic anhydrase 1
Description: Inhibition of esterase activity of human carbonic anhydrase 1 by Lineweaver-Burke plot analysis

T2 sequence (P00915 2-261 limits assumed): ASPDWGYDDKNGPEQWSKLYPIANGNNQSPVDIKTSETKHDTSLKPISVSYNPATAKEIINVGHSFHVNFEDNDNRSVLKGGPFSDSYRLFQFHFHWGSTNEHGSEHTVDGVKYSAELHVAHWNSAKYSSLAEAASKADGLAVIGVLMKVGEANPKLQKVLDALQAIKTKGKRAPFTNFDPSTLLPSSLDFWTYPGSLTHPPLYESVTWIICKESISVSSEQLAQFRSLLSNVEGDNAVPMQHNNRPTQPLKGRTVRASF

- IC50 (Carbonic anhydrase 2 [1]): 14.3 µM
- IC50 (Carbonic anhydrase 1 [2]): 23.1 µM
- Ki (Carbonic anhydrase 2 [3]): 37.5 µM
- Ki (Carbonic anhydrase 1 [4]): 42.4 µM
SMILES: Cc1ccc(S(=O)(=O)n2cccc2)cc1

Source: ChEMBL document CHEMBL1166009, “A novel and one-pot synthesis of new 1-tosyl pyrrol-2-one derivatives and analysis of carbonic anhydrase inhibitory potencies” (Bioorg Med Chem, 2010)
